Laboratory results published in the NIST ThermoML archive (doi:10.1016/j.jct.2007.04.005).
± gives the expanded uncertainty stated by the source.

Assay: xn = mol fraction of the nth substance listed
Conditions: Liquid, x1 = 1

C1CCCCC1 [cyclohexane] + CCCCCCCCC
mass density [kg/m3]
Conditions | 298.15 K | 308.15 K | 318.15 K | 328.15 K
100 kPa | 773.8 ± 0.5 | 764.4 ± 0.5 | 754.8 ± 0.6 | 745.4 ± 0.5
101 kPa | 773.8 ± 0.49 | 764.38 ± 0.5 | 754.99 ± 0.52 | 745.55 ± 0.53
2130 kPa | 775.5 ± 0.6 | 766.2 ± 0.6 | 756.7 ± 0.6 | 746.6 ± 0.6
4150 kPa | 777.2 ± 0.6 | 767.9 ± 0.7 | 758.7 ± 0.7 | 749.6 ± 0.7
6180 kPa | 778.8 ± 0.7 | 769.7 ± 0.7 | 760.6 ± 0.8 | 751.6 ± 0.8
8210 kPa | 780.4 ± 0.8 | 771.4 ± 0.8 | 762.4 ± 0.8 | 753.6 ± 0.9
10230 kPa | 782 ± 0.8 | 773.1 ± 0.9 | 764.2 ± 0.9 | 755.5 ± 0.9
11250 kPa | 782.8 ± 0.9 | 773.9 ± 0.9 | 765.1 ± 0.9 | 756.4 ± 1
12260 kPa | 783.5 ± 0.9 | 774.7 ± 0.9 | 766 ± 1 | 757.4 ± 1
14290 kPa | 785 ± 1 | 776.4 ± 1 | 767.7 ± 1 | 759.2 ± 1.1
16310 kPa | 786.5 ± 1 | 777.9 ± 1.1 | 769.4 ± 1.1 | 761 ± 1.1
18340 kPa | 788 ± 1.1 | 779.5 ± 1.1 | 771.1 ± 1.2 | 762.8 ± 1.2
20370 kPa | 789.4 ± 1.1 | 781 ± 1.2 | 772.7 ± 1.2 | 764.5 ± 1.3
22390 kPa | 790.9 ± 1.2 | 782.5 ± 1.2 | 774.3 ± 1.3 | 766.2 ± 1.3
24420 kPa | 792.2 ± 1.3 | 784 ± 1.3 | 775.8 ± 1.3 | 767.9 ± 1.4
26450 kPa | 793.6 ± 1.3 | 785.5 ± 1.4 | 777.3 ± 1.4 | 769.6 ± 1.4
28470 kPa | 794.9 ± 1.4 | 786.9 ± 1.4 | 778.8 ± 1.5 | 771.2 ± 1.5
29490 kPa | 795.6 ± 1.4 | 787.6 ± 1.4 | 779.6 ± 1.5 | 772 ± 1.5
30500 kPa | 796.1 ± 1.4 | 788.3 ± 1.5 | 780.3 ± 1.5 | 772.7 ± 1.6
32530 kPa | 797.5 ± 1.5 | 789.7 ± 1.5 | 781.7 ± 1.6 | 774.3 ± 1.6
34550 kPa | 798.7 ± 1.5 | 791 ± 1.6 | 783.2 ± 1.6 | 775.8 ± 1.7
36580 kPa | 800 ± 1.6 | 792.4 ± 1.6 | 784.6 ± 1.7 | 777.3 ± 1.7
38600 kPa | 801.2 ± 1.6 | 793.7 ± 1.7 | 786 ± 1.8 | 778.8 ± 1.8
39620 kPa | 801.7 ± 1.7 | 794.3 ± 1.7 | 786.7 ± 1.8 | 779.4 ± 1.8
